Several values for one entry are separate records, joined by “and”; a condition that tells them apart may be missing. Equal values may be shown once. Toxic doses and inconclusive results are not listed. Rule as the data show it: active = T/C of 150% or more; inactive = T/C below 125%.
Tested on: L1210 leukemia ip in BDF1 mice, survival T/C
Experiment: NCI In Vivo Anticancer Drug Screen. Data for tumor model L1210 Leukemia (intraperitoneal) in B6D2F1 (BDF1) mice
Conditions: endpoint: mean survival time, higher = longer survival
Summary of the method: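 Mice bearing the transplanted tumor received compound or vehicle. Survival of the treated group was divided by that of the vehicle-treated control group to give the ratio.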

[1] = dose: 25.0 mg/kg/injection, schedule: Q01DX009 (ip), vehicle: saline with Tween-80
[2] = dose: 50.0 mg/kg/injection, schedule: Q01DX009 (ip), vehicle: saline with Tween-80
[3] = dose: 100.0 mg/kg/injection, schedule: Q01DX009 (ip), vehicle: saline with Tween-80
[4] = dose: 100.0 mg/kg/injection, schedule: Q04DX003 (ip), vehicle: saline with Tween-80
[5] = dose: 200.0 mg/kg/injection, schedule: Q01DX009 (ip), vehicle: saline with Tween-80
[6] = dose: 200.0 mg/kg/injection, schedule: Q04DX003 (ip), vehicle: saline with Tween-80
[7] = dose: 400.0 mg/kg/injection, schedule: Q04DX003 (ip), vehicle: saline with Tween-80
[8] = dose: 100.0 mg/kg/injection, schedule: Q04DX003 (ip), vehicle: Klucel (hydroxypropylcellulose) (HPC)
[9] = dose: 50.0 mg/kg/injection, schedule: Q01DX009 (ip), vehicle: saline
[10] = dose: 100.0 mg/kg/injection, schedule: Q01DX009 (ip), vehicle: saline
[11] = dose: 200.0 mg/kg/injection, schedule: Q01DX009 (ip), vehicle: saline
[12] = dose: 50.0 mg/kg/injection, schedule: Q01DX009 (ip), vehicle: Klucel (hydroxypropylcellulose) (HPC)
[13] = dose: 100.0 mg/kg/injection, schedule: Q01DX009 (ip), vehicle: Klucel (hydroxypropylcellulose) (HPC)

Measured: T/C

O=[N+]([O-])/C=C/c1ccccc1Cl
inactive: dose: 5.0 mg/kg/injection, schedule: Q01DX009 (ip), vehicle: other 98 % of control | dose: 6.25 mg/kg/injection, schedule: Q01DX009 (ip), vehicle: saline with Tween-80 100 % of control | dose: 10.0 mg/kg/injection, schedule: Q01DX009 (ip), vehicle: other 110 % of control | dose: 12.5 mg/kg/injection, schedule: Q01DX009 (ip), vehicle: saline with Tween-80 95 % of control | dose: 15.0 mg/kg/injection, schedule: Q04DX003 (ip), vehicle: other 114 % of control | dose: 20.0 mg/kg/injection, schedule: Q01DX009 (ip), vehicle: other 100 % of control | [1] 101 % of control | dose: 30.0 mg/kg/injection, schedule: Q04DX003 (ip), vehicle: other 104 % of control | dose: 37.5 mg/kg/injection, schedule: Q01DX009 (sc), vehicle: olive oil, sesame oil, peanut oil 94 % of control | dose: 37.5 mg/kg/injection, schedule: Q04DX003 (ip), vehicle: Klucel (hydroxypropylcellulose) (HPC) 101 % of control | [2] 96 % of control | dose: 60.0 mg/kg/injection, schedule: Q04DX003 (ip), vehicle: other 108 % of control | dose: 75.0 mg/kg/injection, schedule: Q01DX001 (ip), vehicle: saline 92 % of control | dose: 75.0 mg/kg/injection, schedule: Q01DX009 (sc), vehicle: olive oil, sesame oil, peanut oil 94 % of control | dose: 75.0 mg/kg/injection, schedule: Q04DX003 (ip), vehicle: Klucel (hydroxypropylcellulose) (HPC) 90 % of control | dose: 150.0 mg/kg/injection, schedule: Q04DX003 (ip), vehicle: Klucel (hydroxypropylcellulose) (HPC) 90 % of control

C/C(CC(O)(C(F)(F)Cl)C(F)(F)Cl)=N\O
inactive: [3] 92 % of control | [4] 107 % of control | [5] 97 % of control | [6] 93 % of control | [7] 93 % of control

CC(C)(C)C(=O)CC(=O)C(C)(C)C.CC(C)(C)C(=O)CC(=O)C(C)(C)C.CC(C)(C)C(=O)CC(=O)C(C)(C)C.CC(C)(C)C(=O)CC(=O)C(C)(C)C.[Er]
inactive: [4] 108 % of control | [6] 92 % of control | [7] 88 % of control

Cc1cc(C)c(N)c(Br)c1
inactive: [1] 88 % of control | dose: 25.0 mg/kg/injection, schedule: Q04DX003 (ip), vehicle: Klucel (hydroxypropylcellulose) (HPC) 95 % of control | [2] 87 % of control | dose: 50.0 mg/kg/injection, schedule: Q04DX003 (ip), vehicle: Klucel (hydroxypropylcellulose) (HPC) 97 % of control | dose: 100.0 mg/kg/injection, schedule: Q01DX001 (ip), vehicle: Klucel (hydroxypropylcellulose) (HPC) 95 % of control | [8] 93 % of control and 90 % of control | [4] 91 % of control | dose: 200.0 mg/kg/injection, schedule: Q01DX001 (ip), vehicle: Klucel (hydroxypropylcellulose) (HPC) 97 % of control

CC(=O)NC1C(=O)NS(=O)(=O)C1c1ccccc1 (centres undefined)
inactive: [9] 96 % of control and 97 % of control | dose: 100.0 mg/kg/injection, schedule: Q01DX001 (ip), vehicle: saline 104 % of control and 92 % of control | [10] 97 % of control and 94 % of control | dose: 200.0 mg/kg/injection, schedule: Q01DX001 (ip), vehicle: saline 92 % of control | [11] 94 % of control and 91 % of control | dose: 400.0 mg/kg/injection, schedule: Q01DX001 (ip), vehicle: saline 92 % of control

C=C1C(=O)OC2/C=C(/C)C(OC(C)=O)CC(O)/C(C)=C\C(OC(=O)/C(C)=C\C)C12 (centres undefined)
inactive: dose: 40.0 mg/kg/injection, schedule: Q01DX009 (ip), vehicle: carboxymethylcellulose (CMC) 101 % of control | dose: 60.0 mg/kg/injection, schedule: Q01DX009 (ip), vehicle: carboxymethylcellulose (CMC) 104 % of control | dose: 80.0 mg/kg/injection, schedule: Q01DX009 (ip), vehicle: carboxymethylcellulose (CMC) 104 % of control | dose: 100.0 mg/kg/injection, schedule: Q01DX009 (ip), vehicle: carboxymethylcellulose (CMC) 98 % of control

O=C(O)c1ccc2c(c1)Cc1ccccc1-2
inactive: dose: 75.0 mg/kg/injection, schedule: Q01DX001 (ip), vehicle: carboxymethylcellulose (CMC) 96 % of control | dose: 150.0 mg/kg/injection, schedule: Q01DX001 (ip), vehicle: carboxymethylcellulose (CMC) 95 % of control | dose: 300.0 mg/kg/injection, schedule: Q01DX001 (ip), vehicle: carboxymethylcellulose (CMC) 102 % of control

C[Se]c1nc2c(=O)[nH]cnc2n1C1OC(CO)C(O)C1O (centres undefined)
inactive: dose: 100.0 mg/kg/injection, schedule: Q01DX005 (ip), vehicle: saline 103 % of control | dose: 200.0 mg/kg/injection, schedule: Q01DX005 (ip), vehicle: saline 111 % of control

Cc1cc(=O)oc2cc(OC(=O)Nc3cccc(Cl)c3Cl)ccc12
inactive: dose: 25.0 mg/kg/injection, schedule: Q01DX009 (ip), vehicle: Klucel (hydroxypropylcellulose) (HPC) 89 % of control | [12] 93 % of control | [13] 98 % of control

COc1ccc(C2=CC(c3ccccc3)C(c3ccccc3)C(=O)N2)cc1 (centres undefined)
inactive: dose: 6.25 mg/kg/injection, schedule: Q04DX002 (ip), vehicle: saline with Tween-80 100 % of control | dose: 12.5 mg/kg/injection, schedule: Q04DX002 (ip), vehicle: saline with Tween-80 100 % of control | dose: 25.0 mg/kg/injection, schedule: Q04DX002 (ip), vehicle: saline with Tween-80 92 % of control

CCOC(=O)C(C)C(O)c1ccc(OC)cc1 (centres undefined)
inactive: [3] 93 % of control | [5] 93 % of control

CC(C)=CCN(CC=C(C)C)CCC(C#N)c1cccc2ccccc12 (centres undefined)
inactive: [12] 100 % of control | [13] 88 % of control | [8] 109 % of control | dose: 200.0 mg/kg/injection, schedule: Q01DX009 (ip), vehicle: Klucel (hydroxypropylcellulose) (HPC) 88 % of control | dose: 200.0 mg/kg/injection, schedule: Q04DX003 (ip), vehicle: Klucel (hydroxypropylcellulose) (HPC) 90 % of control | dose: 400.0 mg/kg/injection, schedule: Q04DX003 (ip), vehicle: Klucel (hydroxypropylcellulose) (HPC) 93 % of control

CCOC(=O)c1nnn(-c2cccc(C(F)(F)F)c2)c1-c1ccccc1
inactive: dose: 100.0 mg/kg/injection, schedule: Q04DX002 (ip), vehicle: Klucel (hydroxypropylcellulose) (HPC) 101 % of control | dose: 200.0 mg/kg/injection, schedule: Q04DX002 (ip), vehicle: Klucel (hydroxypropylcellulose) (HPC) 105 % of control | dose: 400.0 mg/kg/injection, schedule: Q04DX002 (ip), vehicle: Klucel (hydroxypropylcellulose) (HPC) 96 % of control

C#CC(C)(C)OCC1CO1 (centres undefined)
inactive: dose: 25.0 mg/kg/injection, schedule: Q01DX009 (ip), vehicle: saline 93 % of control | dose: 25.0 mg/kg/injection, schedule: Q04DX003 (ip), vehicle: saline 101 % of control | [9] 90 % of control | dose: 50.0 mg/kg/injection, schedule: Q04DX003 (ip), vehicle: saline 113 % of control | [10] 102 % of control | dose: 100.0 mg/kg/injection, schedule: Q04DX003 (ip), vehicle: saline 108 % of control | [11] 108 % of control | dose: 200.0 mg/kg/injection, schedule: Q04DX003 (ip), vehicle: saline 95 % of control | dose: 400.0 mg/kg/injection, schedule: Q01DX009 (ip), vehicle: saline 93 % of control | dose: 400.0 mg/kg/injection, schedule: Q04DX003 (ip), vehicle: saline 106 % of control
